# Experimental data from ChEMBL document CHEMBL1201862, “PubChem BioAssay data set” (2004).
#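 Cultured in 96-well plates, cells were exposed to test compound for 48 hours across five concentrations. Abbreviation: GI50, concentration required for 50% inhibition of growth.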 The source made the active and inactive calls. No stated cut-off is given here; in the data, active = GI50 up to about 1.1 µM and inactive = higher.
# Columns and labels:
# Assay in all cases: growth of human tumour cells (NCI), 48 h
# MCF7 = tested on: MCF7
# HCC 2998 = tested on: HCC 2998
# K562 = tested on: K562
# OVCAR-3 = tested on: OVCAR-3
# SNB-19 = tested on: SNB-19
# DU-145 = tested on: DU-145
# UO-31 = tested on: UO-31
# Hs-578T = tested on: Hs-578T
# MDA-N = tested on: MDA-N
# EKVX = tested on: EKVX
# RXF 393 = tested on: RXF 393
# LOX IMVI = tested on: LOX IMVI
# HT-29 = tested on: HT-29
# SF-268 = tested on: SF-268
# MDA-MB-231 = tested on: MDA-MB-231
# RPMI-8226 = tested on: RPMI-8226
# NCI/ADR-RES = tested on: NCI/ADR-RES
# PC-3 = tested on: PC-3
# HCT-15 = tested on: HCT-15
# TK-10 = tested on: TK-10
# HOP-62 = tested on: HOP-62
# SF-295 = tested on: SF-295
# UACC-62 = tested on: UACC-62
# NCI-H23 = tested on: NCI-H23
# SK-OV-3 = tested on: SK-OV-3
# CAKI-1 = tested on: CAKI-1
# SNB-75 = tested on: SNB-75
# SK-MEL-2 = tested on: SK-MEL-2
# 786-0 = tested on: 786-0
# SF-539 = tested on: SF-539
# MOLT-4 = tested on: MOLT-4
# M14 = tested on: M14
# NCI-H522 = tested on: NCI-H522
# ACHN = tested on: ACHN
# U-251 = tested on: U-251
# OVCAR-8 = tested on: OVCAR-8
# MDA-MB-435 = tested on: MDA-MB-435
# A498 = tested on: A498
# SR = tested on: SR
# SK-MEL-28 = tested on: SK-MEL-28
# CCRF-CEM = tested on: CCRF-CEM
# Malme-3M = tested on: Malme-3M
# HCT-116 = tested on: HCT-116
# UACC-257 = tested on: UACC-257
# A549 = tested on: A549
# NCI-H226 = tested on: NCI-H226
# KM12 = tested on: KM12
# SW-620 = tested on: SW-620
# COLO 205 = tested on: COLO 205
# HOP-92 = tested on: HOP-92
# NCI-H460 = tested on: NCI-H460
# OVCAR-4 = tested on: OVCAR-4
# T47D = tested on: T47D
# OVCAR-5 = tested on: OVCAR-5
# BT-549 = tested on: BT-549
# IGROV-1 = tested on: IGROV-1
# SN12C = tested on: SN12C
# SK-MEL-5 = tested on: SK-MEL-5
# HL-60 = tested on: HL-60
structure (smiles),measurement,setting,value
CNc1ncnc2c1cnn2COCC(O)CO (stereo not given),GI50,MCF7,> 100 µM (inactive)
same,GI50,HCC 2998,> 100 µM (inactive)
same,GI50,K562,> 100 µM (inactive)
same,GI50,OVCAR-3,> 100 µM (inactive)
same,GI50,SNB-19,> 100 µM (inactive)
same,GI50,DU-145,> 100 µM (inactive)
same,GI50,UO-31,> 100 µM (inactive)
same,GI50,Hs-578T,> 100 µM (inactive)
same,GI50,MDA-N,> 100 µM (inactive)
same,GI50,EKVX,> 100 µM (inactive)
same,GI50,RXF 393,> 100 µM (inactive)
same,GI50,LOX IMVI,> 100 µM (inactive)
same,GI50,HT-29,> 100 µM (inactive)
same,GI50,SF-268,> 100 µM (inactive)
same,GI50,MDA-MB-231,> 100 µM (inactive)
same,GI50,RPMI-8226,> 100 µM (inactive)
same,GI50,NCI/ADR-RES,> 100 µM (inactive)
same,GI50,PC-3,> 100 µM (inactive)
same,GI50,HCT-15,> 100 µM
same,GI50,TK-10,> 100 µM (inactive)
same,GI50,HOP-62,> 100 µM (inactive)
same,GI50,SF-295,> 100 µM (inactive)
same,GI50,UACC-62,> 100 µM (inactive)
same,GI50,NCI-H23,> 100 µM (inactive)
same,GI50,SK-OV-3,> 100 µM (inactive)
same,GI50,CAKI-1,> 100 µM (inactive)
same,GI50,SNB-75,> 100 µM (inactive)
same,GI50,SK-MEL-2,> 100 µM (inactive)
same,GI50,786-0,> 100 µM (inactive)
same,GI50,SF-539,> 100 µM (inactive)
same,GI50,MOLT-4,> 100 µM (inactive)
same,GI50,M14,> 100 µM (inactive)
same,GI50,NCI-H522,> 100 µM (inactive)
same,GI50,ACHN,> 100 µM (inactive)
same,GI50,U-251,> 100 µM (inactive)
same,GI50,OVCAR-8,> 100 µM (inactive)
same,GI50,MDA-MB-435,> 100 µM (inactive)
same,GI50,A498,> 100 µM (inactive)
same,GI50,SR,> 100 µM (inactive)
same,GI50,SK-MEL-28,> 100 µM (inactive)
same,GI50,CCRF-CEM,> 100 µM (inactive)
same,GI50,Malme-3M,> 100 µM (inactive)
same,GI50,HCT-116,> 100 µM (inactive)
same,GI50,UACC-257,> 100 µM (inactive)
same,GI50,A549,> 100 µM (inactive)
same,GI50,NCI-H226,> 100 µM (inactive)
same,GI50,KM12,> 100 µM (inactive)
same,GI50,SW-620,> 100 µM (inactive)
same,GI50,COLO 205,> 100 µM (inactive)
same,GI50,HOP-92,> 100 µM (inactive)
same,GI50,NCI-H460,> 100 µM (inactive)
same,GI50,OVCAR-4,> 100 µM (inactive)
same,GI50,T47D,> 100 µM (inactive)
same,GI50,OVCAR-5,> 100 µM (inactive)
same,GI50,BT-549,> 100 µM (inactive)
same,GI50,IGROV-1,> 100 µM (inactive)
same,GI50,SN12C,> 100 µM (inactive)
same,GI50,SK-MEL-5,> 100 µM (inactive)
CCOC(=O)NN(C(=O)OCC)C(C(=O)C1=CCCCC1)N(NC(=O)OCC)C(=O)OCC,GI50,MCF7,> 100 µM (inactive)
same,GI50,HCC 2998,> 100 µM (inactive)
same,GI50,K562,> 100 µM (inactive)
same,GI50,OVCAR-3,> 100 µM (inactive)
same,GI50,SNB-19,> 100 µM (inactive)
same,GI50,DU-145,> 100 µM (inactive)
same,GI50,UO-31,> 100 µM (inactive)
same,GI50,Hs-578T,> 100 µM (inactive)
same,GI50,MDA-N,> 100 µM (inactive)
same,GI50,EKVX,> 100 µM (inactive)
same,GI50,RXF 393,> 100 µM (inactive)
same,GI50,LOX IMVI,> 100 µM (inactive)
same,GI50,HT-29,> 100 µM (inactive)
same,GI50,SF-268,> 100 µM (inactive)
same,GI50,MDA-MB-231,> 100 µM (inactive)
same,GI50,RPMI-8226,> 100 µM (inactive)
same,GI50,NCI/ADR-RES,> 100 µM (inactive)
same,GI50,PC-3,> 100 µM (inactive)
same,GI50,HCT-15,> 100 µM
same,GI50,TK-10,> 100 µM (inactive)
same,GI50,HOP-62,> 100 µM (inactive)
same,GI50,SF-295,> 100 µM (inactive)
same,GI50,NCI-H23,> 100 µM (inactive)
same,GI50,SK-OV-3,> 100 µM (inactive)
same,GI50,CAKI-1,> 100 µM (inactive)
same,GI50,SNB-75,> 100 µM (inactive)
same,GI50,SK-MEL-2,> 100 µM (inactive)
same,GI50,786-0,> 100 µM (inactive)
same,GI50,SF-539,9.57 µM (inactive)
same,GI50,MOLT-4,> 100 µM (inactive)
same,GI50,M14,> 100 µM (inactive)
same,GI50,NCI-H522,> 100 µM (inactive)
same,GI50,ACHN,> 100 µM (inactive)
same,GI50,U-251,> 100 µM (inactive)
same,GI50,OVCAR-8,> 100 µM (inactive)
same,GI50,MDA-MB-435,> 100 µM (inactive)
same,GI50,A498,22.6 µM (inactive)
same,GI50,SR,> 100 µM (inactive)
same,GI50,SK-MEL-28,> 100 µM (inactive)
same,GI50,Malme-3M,> 100 µM (inactive)
same,GI50,HCT-116,> 100 µM (inactive)
same,GI50,UACC-257,> 100 µM (inactive)
same,GI50,A549,> 100 µM (inactive)
same,GI50,NCI-H226,> 100 µM (inactive)
same,GI50,KM12,> 100 µM (inactive)
same,GI50,SW-620,> 100 µM (inactive)
same,GI50,COLO 205,> 100 µM (inactive)
same,GI50,HOP-92,> 100 µM (inactive)
same,GI50,NCI-H460,> 100 µM (inactive)
same,GI50,OVCAR-4,> 100 µM (inactive)
same,GI50,T47D,> 100 µM (inactive)
same,GI50,OVCAR-5,> 100 µM (inactive)
same,GI50,BT-549,> 100 µM (inactive)
same,GI50,IGROV-1,> 100 µM (inactive)
same,GI50,SN12C,> 100 µM (inactive)
same,GI50,SK-MEL-5,> 100 µM (inactive)
CCOC(=O)C(C)c1nc2ccc(C(F)(F)F)cc2[nH]c1=O (stereo not given),GI50,MCF7,60.8 µM (inactive)
same,GI50,HCC 2998,65.2 µM (inactive)
same,GI50,K562,48.5 µM (inactive)
same,GI50,OVCAR-3,28 µM (inactive)
same,GI50,SNB-19,> 100 µM (inactive)
same,GI50,DU-145,69.2 µM (inactive)
same,GI50,UO-31,36.2 µM (inactive)
same,GI50,Hs-578T,68.4 µM (inactive)
same,GI50,MDA-N,64.1 µM (inactive)
same,GI50,EKVX,43.1 µM (inactive)
same,GI50,HL-60,44.8 µM (inactive)
same,GI50,RXF 393,64.3 µM (inactive)
same,GI50,LOX IMVI,66.2 µM (inactive)
same,GI50,HT-29,51.6 µM (inactive)
same,GI50,SF-268,87.1 µM (inactive)
same,GI50,MDA-MB-231,77.1 µM (inactive)
same,GI50,RPMI-8226,28.9 µM (inactive)
same,GI50,NCI/ADR-RES,37.4 µM (inactive)
same,GI50,PC-3,36.9 µM (inactive)
same,GI50,HCT-15,95.3 µM
same,GI50,TK-10,60.7 µM (inactive)
same,GI50,HOP-62,> 100 µM (inactive)
same,GI50,SF-295,45.5 µM (inactive)
same,GI50,UACC-62,39.8 µM (inactive)
same,GI50,NCI-H23,49.9 µM (inactive)
same,GI50,SK-OV-3,> 100 µM (inactive)
same,GI50,CAKI-1,> 10 µM (inactive)
same,GI50,SNB-75,46.6 µM (inactive)
same,GI50,SK-MEL-2,> 100 µM (inactive)
same,GI50,786-0,> 100 µM (inactive)
same,GI50,SF-539,> 100 µM (inactive)
same,GI50,MOLT-4,50.2 µM (inactive)
same,GI50,M14,80 µM (inactive)
same,GI50,ACHN,> 100 µM (inactive)
same,GI50,U-251,> 100 µM (inactive)
same,GI50,OVCAR-8,94.6 µM (inactive)
same,GI50,MDA-MB-435,> 100 µM (inactive)
same,GI50,A498,34 µM (inactive)
same,GI50,SK-MEL-28,> 100 µM (inactive)
same,GI50,CCRF-CEM,77.8 µM (inactive)
same,GI50,Malme-3M,97.7 µM (inactive)
same,GI50,HCT-116,72.8 µM (inactive)
same,GI50,UACC-257,58.7 µM (inactive)
same,GI50,A549,73.5 µM (inactive)
same,GI50,NCI-H226,73.6 µM (inactive)
same,GI50,KM12,71.9 µM (inactive)
same,GI50,SW-620,> 100 µM (inactive)
same,GI50,COLO 205,> 100 µM (inactive)
same,GI50,HOP-92,43.9 µM (inactive)
same,GI50,NCI-H460,84.9 µM (inactive)
same,GI50,OVCAR-4,42.5 µM (inactive)
same,GI50,T47D,23.8 µM (inactive)
same,GI50,OVCAR-5,> 100 µM (inactive)
same,GI50,BT-549,42 µM (inactive)
same,GI50,SN12C,> 100 µM (inactive)
same,GI50,SK-MEL-5,52.7 µM (inactive)
